Reference: patent US9650339B2, “Inhibitors of histone demethylases” (Gilead Sciences, Inc., priority 2013, dated 2017)
One block for each compound: values may come before it.

What was measured:
Assay type in all cases: cell-based
MOLP8 = test: Cell proliferation assay MOLP8; settings: Homo sapiens, MOLP-8; MOLP8, Myeloma; method of Example 5
Protocol: (§1) MCF7 cells were seeded in multi well plates at a density optimized to give approximately 90% confluent cells at the time of harvest. Cells were incubated for 24 hours before addition of compound. Compounds were diluted in complete medium and added to the plates in duplicates. The final concentration of DMSO was maximum 0.5%. Complete medium used was DMEM with GlutaMAX containing 10% FBS and pen/strep.
(§2) 120 hours after addition of compounds, the plates were harvested and analyzed by ATPlite 1 Step (Perkin Elmer, cat no 6016739) according to the manufactures recommendation.
(§3) The assays were performed by the method of Example 5 by seeding the relevant cell line at a density optimized to give approximately 90% confluent cells at the time of harvest.

K562 = test: Cell proliferation assay K562; settings: Homo sapiens; K562, Chronic myelogenous leukemia; method of Example 5
Protocol: as §1, §2, §3

HCC1954 = test: Cell proliferation assay HCC1954; settings: Homo sapiens; HCC1954, Breast dutal carcinoma; method of Example 5
Protocol: as §1, §2, §3

KMS 12 BM = test: Cell proliferation assay KMS 12 BM; settings: Homo sapiens, Myeloma, method of Example 5
Protocol: as §1, §2, §3

A375 = test: Cell proliferation assay A375; settings: Homo sapiens, A-375; A375, Melanoma; method of Example 5
Protocol: as §1, §2, §3

AMO1 = test: Cell proliferation assay AMO1; settings: Homo sapiens; AMO1, Plasmacytoma; method of Example 5
Protocol: as §1, §2, §3

SK-MEL-28 = test: Cell proliferation assay SK-MEL-28; settings: Homo sapiens; SK-MEL-28, Melanoma; method of Example 5
Protocol: as §1, §2, §3

Jurkat Clone E6-1 = test: Cell proliferation assay Jurkat Clone E6-1; settings: Homo sapiens; Jurkat Clone E6-1, Acute T cell lymphoma; method of Example 5
Protocol: as §1, §2, §3

JJN3 = test: Cell proliferation assay JJN3; settings: Homo sapiens, JJN-3; JJN3, Plasma cell leukemia; method of Example 5
Protocol: as §1, §2, §3

SK MM2 = test: Cell proliferation assay SK MM2; settings: Homo sapiens, SK-MM-2; SK MM2, Plasma cell leukemia; method of Example 5
Protocol: as §1, §2, §3

LP1 = test: Cell proliferation assay LP1; settings: Homo sapiens, LP-1; LP1, Myeloma; method of Example 5
Protocol: as §1, §2, §3

Compound: CCN(CCN(C)C)C(=O)CNCc1cc(C2OCC(Cc3ccccc3)CN2C(=O)C(F)(F)F)ccn1 (centres unmarked) [Compound 90, 2-[({4-[5-benzyl-3-(trifluoroacetyl)-1,3-oxazinan-2-yl]pyridin-2-yl}methyl)amino]-N-[2-(dimethylamino)-ethyl]-N-ethylacetamide]
EC50 (MOLP8): < 250 nM

EC50 (K562): 250 to 2500 nM
EC50 (HCC1954): > 2500 nM
EC50 (A375): 250 to 2500 nM
EC50 (SK-MEL-28): > 2500 nM
EC50 (Jurkat Clone E6-1): > 2500 nM
Compound: CCN(CCN(C)C)C(=O)CNCc1cc(CNC(=O)C(F)(F)F)ccn1 [Compound 25, N-[(2-{[({[2-(dimethylamino)ethyl]-(ethyl)carbamoyl}-methyl)amino]methyl}-pyrtdin-4-yl)methyl]-2,2,2-trifluoroacetamide]
EC50 (KMS 12 BM): < 250 nM
EC50 (AMO1): < 250 nM

Compound: CCN(CC)CCCCNCc1cc(/C=N/CCO)ccn1 [Compound 61, 2-[{[2-({[4-(diethylamino)-butyl]amino}-methyl)pyridin-4-yl]methylidene}-amino]ethan-1-ol]
EC50 (JJN3): > 2500 nM
EC50 (SK MM2): 250 to 2500 nM
EC50 (LP1): > 2500 nM
